# Assay results as given in ChEMBL document CHEMBL1123720 (J Med Chem, 1987).
# pIC50: −log10 of the molar value.
# Species on record: Rattus norvegicus
# Assay: Dose-dependent inhibition of calcium contraction in depolarized rat aortic strips
# Type: functional, organism-based
# Settings: Aorta
row,Structure (SMILES),pIC50
1,CCOC(=O)[C@@H]1[C@H]2/C(=C(\O)OCC)C(C)=N[C@]1(C)Sc1cc([N+](=O)[O-])ccc12,4.85
2,CCOC(=O)[C@@H]1[C@H]2/C(=C(\O)OCC)C(C)=N[C@]1(C)Sc1c2cccc1[N+](=O)[O-],5.43
3,COC(=O)C1=C(C)NC(C)=C(C(=O)OC)C1c1ccccc1[N+](=O)[O-] [NIFEDIPINE],8.06
4,CCOC(=O)C1=C(C)N=C(C)/C(=C(/O)OCC)C1c1cc([N+](=O)[O-])ccc1SC (configuration not stated),6.89
5,CCOC(=O)[C@H]1[C@H]2/C(=C(\O)OCC)C(C)=N[C@]1(C)Sc1ccccc12,4.66
6,CCOC(=O)[C@H]1[C@H]2/C(=C(\O)OCC)C(C)=N[C@]1(C)Sc1ccc([N+](=O)[O-])cc12,5.47
7,CCOC(=O)[C@@H]1[C@H]2/C(=C(\O)OCC)C(C)=N[C@]1(C)Sc1ccccc12,5.92
8,CCOC(=O)[C@H]1[C@H]2/C(=C(\O)OCC)C(C)=N[C@]1(C)Sc1c2cccc1[N+](=O)[O-],4.64
9,CCOC(=O)[C@@H]1[C@H]2/C(=C(\O)OCC)C(C)=N[C@]1(C)Sc1ccc([N+](=O)[O-])cc12,7.51
10,CCOC(=O)C1=C(C)N=C(C)/C(=C(/O)OCC)C1c1cccc([N+](=O)[O-])c1SC (configuration not stated),8.24
11,CCOC(=O)C1=C(C)NC(C)=C(C(=O)OC)C1c1cccc([N+](=O)[O-])c1 (configuration not stated) [NITRENDIPINE],8.51

# Species on record: Rattus norvegicus
# Assay: Dose-dependent inhibition of calcium contraction in depolarized rat aortic strips.
# Type: functional, organism-based
# Settings: Aorta
row,Structure (SMILES),pIC50
1,CCOC(=O)[C@H]1[C@H]2/C(=C(\O)OCC)C(C)=N[C@]1(C)Sc1cc([N+](=O)[O-])ccc12,< 4.00
